Reference: patent US20240092758A1, “IMIDAZOLO INDAZOLE COMPOUNDS AS JAK INHIBITORS” (Theravance Biopharma R&D IP, LLC, priority 2021, published 2024)

Legend:
[1] = system: IL-13 induced STAT6 phosphorylation in BEAS-2B human lung epithelial cells; test: Cellular JAKI potency assay (BEAS-2B); type: cell-based; conditions: BEAS-2B cells; for IC50: Homo sapiens, BEAS-2B, read-out: BEAS2B pIC50 (converted)
Summary of the method: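 BEAS-2B cells were preincubated with compound (0.1% DMSO) in HBSS/HEPES/BSA for 1 h at 37 °C, then stimulated with IL-13 (80 ng/mL before addition) for 30 min. After lysis, pSTAT6 (Tyr641) was quantified by AlphaLISA SureFire; IC50 from a 4-parameter fit of percent inhibition, reported as pIC50.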

JAK1 = JAK1 (Homo sapiens (Human), UniProt P23458); test: Biochemical JAK kinase assay (LanthaScreen), JAK1; conditions: for Ki: read-out: JAK1 pKi (converted)
JAK1, sequence (P23458 whole entry): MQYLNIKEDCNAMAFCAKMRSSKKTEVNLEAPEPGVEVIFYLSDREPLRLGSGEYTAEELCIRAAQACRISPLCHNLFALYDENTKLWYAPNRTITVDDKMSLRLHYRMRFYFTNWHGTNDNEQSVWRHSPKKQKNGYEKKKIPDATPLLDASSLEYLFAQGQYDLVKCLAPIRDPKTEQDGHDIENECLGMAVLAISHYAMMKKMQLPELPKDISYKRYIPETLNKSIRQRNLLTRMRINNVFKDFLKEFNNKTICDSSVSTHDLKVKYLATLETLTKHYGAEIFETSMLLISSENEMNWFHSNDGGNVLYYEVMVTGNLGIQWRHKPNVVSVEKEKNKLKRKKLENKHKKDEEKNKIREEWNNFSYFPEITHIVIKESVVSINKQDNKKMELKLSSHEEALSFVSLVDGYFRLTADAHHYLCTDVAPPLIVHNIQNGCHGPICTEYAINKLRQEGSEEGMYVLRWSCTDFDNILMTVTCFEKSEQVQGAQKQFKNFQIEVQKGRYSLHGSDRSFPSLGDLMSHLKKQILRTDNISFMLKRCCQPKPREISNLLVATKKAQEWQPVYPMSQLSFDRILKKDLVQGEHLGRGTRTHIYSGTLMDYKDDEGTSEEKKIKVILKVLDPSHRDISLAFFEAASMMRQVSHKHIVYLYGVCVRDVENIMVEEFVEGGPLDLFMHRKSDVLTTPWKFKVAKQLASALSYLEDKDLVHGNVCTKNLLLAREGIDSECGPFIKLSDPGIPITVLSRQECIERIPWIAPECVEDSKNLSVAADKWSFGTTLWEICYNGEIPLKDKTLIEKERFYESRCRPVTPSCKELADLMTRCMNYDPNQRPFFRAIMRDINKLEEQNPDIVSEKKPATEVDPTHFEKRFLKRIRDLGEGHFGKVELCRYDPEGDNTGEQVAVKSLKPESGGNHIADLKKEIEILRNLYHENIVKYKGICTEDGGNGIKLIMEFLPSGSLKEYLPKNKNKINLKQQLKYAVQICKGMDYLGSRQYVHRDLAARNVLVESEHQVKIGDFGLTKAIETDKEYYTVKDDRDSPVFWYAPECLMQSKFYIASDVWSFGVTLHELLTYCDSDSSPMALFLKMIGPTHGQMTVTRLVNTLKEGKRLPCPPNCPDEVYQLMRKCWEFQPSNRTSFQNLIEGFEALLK
Summary of the method: (§1)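 LanthaScreen format: phospho-STAT1 (pTyr701) detected with 2 nM Tb antibody after 10 mM EDTA quench. Kinase step used Km-level ATP and 200 nM STAT1 peptide, 1 h at ambient after 1 h pre-incubation. Inhibition fitted to IC50, reported as pKi.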

JAK3 = JAK3 (Homo sapiens (Human), UniProt P52333); test: Biochemical JAK kinase assay (LanthaScreen), JAK3; conditions: read-out: JAK3 pKi (converted)
JAK3, sequence (P52333 whole entry): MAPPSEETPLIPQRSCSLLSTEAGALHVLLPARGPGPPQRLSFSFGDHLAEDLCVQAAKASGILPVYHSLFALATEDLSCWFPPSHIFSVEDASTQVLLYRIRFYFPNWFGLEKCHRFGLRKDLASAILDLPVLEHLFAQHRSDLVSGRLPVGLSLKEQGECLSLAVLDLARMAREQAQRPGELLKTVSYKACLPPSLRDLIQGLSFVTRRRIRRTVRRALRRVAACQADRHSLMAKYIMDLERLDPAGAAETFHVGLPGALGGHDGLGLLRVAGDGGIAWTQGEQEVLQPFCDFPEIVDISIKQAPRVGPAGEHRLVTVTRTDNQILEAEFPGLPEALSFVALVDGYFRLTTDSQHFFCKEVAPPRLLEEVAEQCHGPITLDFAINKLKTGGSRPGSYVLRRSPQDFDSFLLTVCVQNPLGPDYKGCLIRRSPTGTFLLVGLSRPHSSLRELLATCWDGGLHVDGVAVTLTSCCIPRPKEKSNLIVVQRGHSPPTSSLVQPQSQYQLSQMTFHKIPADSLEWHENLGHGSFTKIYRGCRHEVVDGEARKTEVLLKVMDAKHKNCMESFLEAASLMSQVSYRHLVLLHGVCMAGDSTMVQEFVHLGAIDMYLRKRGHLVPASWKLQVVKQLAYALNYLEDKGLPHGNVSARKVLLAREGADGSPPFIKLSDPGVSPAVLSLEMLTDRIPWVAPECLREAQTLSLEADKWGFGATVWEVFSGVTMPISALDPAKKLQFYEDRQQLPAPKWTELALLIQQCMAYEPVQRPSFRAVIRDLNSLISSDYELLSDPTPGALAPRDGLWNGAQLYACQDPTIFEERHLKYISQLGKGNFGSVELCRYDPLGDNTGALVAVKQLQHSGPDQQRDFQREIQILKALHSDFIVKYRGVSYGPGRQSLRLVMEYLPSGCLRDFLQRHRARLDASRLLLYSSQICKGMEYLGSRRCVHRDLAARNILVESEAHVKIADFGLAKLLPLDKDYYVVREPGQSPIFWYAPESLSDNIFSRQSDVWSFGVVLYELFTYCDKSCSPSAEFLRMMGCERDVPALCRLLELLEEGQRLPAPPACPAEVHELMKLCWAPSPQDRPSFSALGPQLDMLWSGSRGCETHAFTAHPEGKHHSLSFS
Method: A panel of four LanthaScreen JAK biochemical assays (JAK1, 2, 3 and Tyk2) were carried in a common kinase reaction buffer (50 mM HEPES, pH 7.5, 0.01% Brij-35, 10 mM MgCl2, and 1 mM EGTA). Recombinant GST-tagged JAK enzymes and a GFP-tagged STAT1 peptide substrate were obtained from Life Technologies.
Serially diluted compounds were pre-incubated with each of the four JAK enzymes and the substrate in white 384-well microplates (Corning) at ambient temperature for 1 h. ATP was subsequently added to initiate the kinase reactions in 10 μL total volume, with 1% DMSO. The final enzyme concentrations for JAK1, 2, 3 and Tyk2 are 4.2 nM, 0.1 nM, 1 nM, and 0.25 nM respectively; the corresponding Km ATP concentrations used are 25 μM, 3 μM, 1.6 μM, and 10 μM; while the substrate concentration is 200 nM for all four assays. Kinase reactions were allowed to proceed for 1 hour at ambient temperature before a 10 μL preparation of EDTA (10 mM final concentration) and Tb-anti-pSTAT1 (pTyr701) antibody (Life Technologies, 2 nM final concentration) in TR-FRET dilution buffer (Life Technologies) was added. The plates were allowed to incubate at ambient temperature for 1 h before being read on the EnVision reader (Perkin Elmer). Emission ratio signals (520 nm/495 nm) were recorded and utilized to calculate the percent inhibition values based on DMSO and background controls.
For dose-response analysis, percent inhibition data were plotted vs. compound concentrations, and IC50 values were determined from a 4-parameter robust fit model with the Prism software (GraphPad Software). Results were expressed as pIC50 (negative logarithm of IC50) and subsequently converted to pKi (negative logarithm of dissociation constant, Ki) using the Cheng-Prusoff equation.
Test compounds having a lower Ki value or higher pKi value in the four JAK assays show greater inhibition of JAK activity.

[2] = Pharmacokinetics in plasma and lung in mouse after oral aspiration administration; type: in vivo; conditions: male CD1 mice
Method: Plasma and lung concentrations of test compounds were quantified and pharmacokinetic parameters were calculated in the following manner. Male CD1 mice from Charles River Laboratories were used in the pharmacokinetic studies. Test compounds were individually formulated in 20% propylene glycol in pH 4 citrate buffer at a concentration of 0.2 mg/mL. Test compounds were administered in two, 25 μL increments introduced into the trachea of each mouse by oral aspiration using a calibrated pipette once the animal was anesthetized using isoflurane. Blood samples were collected as terminal collections via cardiac puncture at 0.167, 1, 4, 8, and 24 hr post-dosing. Following […] with CO2, a direct cardiac puncture was performed while avoiding puncturing the lung and blood was immediately transferred into K2EDTA tubes and placed on wet ice. Blood samples were centrifuged (Eppendorf centrifuge, 5804R) for 4 minutes at approximately 12,000 rpm at 4° C. to collect plasma. Intact lungs were also excised from these mice using the same timepoints (0.167, 1, 4, 8, and 24 hr). Lungs were washed with sterile water to remove any blood residue and were patted dry, weighed, and homogenized in 0.1% formic acid in water at a dilution of 1:3 (lung:water, weight/volume). Plasma and lung concentrations of test compounds were determined by LC-MS/MS analysis against analytical standards constructed into a standard curve in the test matrix. The pharmacokinetic parameters of test compounds were determined by non-compartmental analysis. For concentrations below the limit of quantification, zero was used for mean calculations. Mean values were not reported if more than 50% of the samples were below the limit of quantification at a timepoint, or if more than 50% of a calculated pharmacokinetic parameter was not reportable. The area under the concentration-time curve extrapolated to infinity (AUC(0-inf)) was calculated as follows: AUC(0-inf)=AUC(0-t)+Clast/k, where AUC(0-t) is the area under the concentration-time curve from the time of dosing to the last measurable concentration calculated by the linear trapezoidal rule, Clast is the last measurable concentration, and k is the first order rate constant associated with the terminal elimination phase, estimated by linear regression of time versus log concentration. The lung-to-plasma AUC ratio was determined as the ratio of the lung AUC(0-inf) in μg*hr/g to the plasma AUC(0-inf) in μg*hr/mL.

TYK2 = TYK2 (Homo sapiens (Human), UniProt P29597); test: Biochemical JAK kinase assay (LanthaScreen), Tyk2; conditions: read-out: Tyk2 pKi (converted)
TYK2, sequence (P29597 whole entry): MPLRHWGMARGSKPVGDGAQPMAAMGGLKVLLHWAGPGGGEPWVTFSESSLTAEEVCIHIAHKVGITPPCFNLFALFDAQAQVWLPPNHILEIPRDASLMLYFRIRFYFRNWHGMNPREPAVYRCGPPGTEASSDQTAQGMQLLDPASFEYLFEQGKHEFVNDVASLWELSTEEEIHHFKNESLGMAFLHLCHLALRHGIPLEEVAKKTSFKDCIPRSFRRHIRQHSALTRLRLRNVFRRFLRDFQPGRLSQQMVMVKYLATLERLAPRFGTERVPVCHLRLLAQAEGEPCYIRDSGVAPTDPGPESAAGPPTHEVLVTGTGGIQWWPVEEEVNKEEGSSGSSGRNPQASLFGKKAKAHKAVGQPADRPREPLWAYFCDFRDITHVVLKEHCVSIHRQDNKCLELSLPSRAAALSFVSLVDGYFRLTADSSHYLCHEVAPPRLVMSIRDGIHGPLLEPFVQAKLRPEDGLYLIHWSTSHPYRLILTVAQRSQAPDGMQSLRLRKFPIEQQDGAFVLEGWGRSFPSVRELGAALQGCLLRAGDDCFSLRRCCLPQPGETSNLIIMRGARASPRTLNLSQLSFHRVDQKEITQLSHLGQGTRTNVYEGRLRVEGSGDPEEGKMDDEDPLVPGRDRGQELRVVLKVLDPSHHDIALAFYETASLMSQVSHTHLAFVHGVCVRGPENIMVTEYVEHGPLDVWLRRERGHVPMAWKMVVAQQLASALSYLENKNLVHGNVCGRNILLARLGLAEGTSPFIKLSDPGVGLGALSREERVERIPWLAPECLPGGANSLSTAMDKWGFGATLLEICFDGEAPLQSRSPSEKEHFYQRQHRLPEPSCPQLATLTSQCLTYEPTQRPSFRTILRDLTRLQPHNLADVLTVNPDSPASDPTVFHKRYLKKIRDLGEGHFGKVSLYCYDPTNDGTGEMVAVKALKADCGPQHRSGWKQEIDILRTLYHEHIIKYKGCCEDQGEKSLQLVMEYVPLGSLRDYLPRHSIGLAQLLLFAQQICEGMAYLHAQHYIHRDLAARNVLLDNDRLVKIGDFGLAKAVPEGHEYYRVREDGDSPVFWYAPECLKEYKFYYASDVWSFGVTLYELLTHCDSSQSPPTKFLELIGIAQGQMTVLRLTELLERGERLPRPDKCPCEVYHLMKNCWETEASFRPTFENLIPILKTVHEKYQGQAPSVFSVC
Summary of the method: as §1

JAK2 = JAK2 (Homo sapiens (Human), UniProt O60674); test: Biochemical JAK kinase assay (LanthaScreen), JAK2; conditions: for Ki: read-out: JAK2 pKi (converted)
JAK2, sequence (O60674 whole entry): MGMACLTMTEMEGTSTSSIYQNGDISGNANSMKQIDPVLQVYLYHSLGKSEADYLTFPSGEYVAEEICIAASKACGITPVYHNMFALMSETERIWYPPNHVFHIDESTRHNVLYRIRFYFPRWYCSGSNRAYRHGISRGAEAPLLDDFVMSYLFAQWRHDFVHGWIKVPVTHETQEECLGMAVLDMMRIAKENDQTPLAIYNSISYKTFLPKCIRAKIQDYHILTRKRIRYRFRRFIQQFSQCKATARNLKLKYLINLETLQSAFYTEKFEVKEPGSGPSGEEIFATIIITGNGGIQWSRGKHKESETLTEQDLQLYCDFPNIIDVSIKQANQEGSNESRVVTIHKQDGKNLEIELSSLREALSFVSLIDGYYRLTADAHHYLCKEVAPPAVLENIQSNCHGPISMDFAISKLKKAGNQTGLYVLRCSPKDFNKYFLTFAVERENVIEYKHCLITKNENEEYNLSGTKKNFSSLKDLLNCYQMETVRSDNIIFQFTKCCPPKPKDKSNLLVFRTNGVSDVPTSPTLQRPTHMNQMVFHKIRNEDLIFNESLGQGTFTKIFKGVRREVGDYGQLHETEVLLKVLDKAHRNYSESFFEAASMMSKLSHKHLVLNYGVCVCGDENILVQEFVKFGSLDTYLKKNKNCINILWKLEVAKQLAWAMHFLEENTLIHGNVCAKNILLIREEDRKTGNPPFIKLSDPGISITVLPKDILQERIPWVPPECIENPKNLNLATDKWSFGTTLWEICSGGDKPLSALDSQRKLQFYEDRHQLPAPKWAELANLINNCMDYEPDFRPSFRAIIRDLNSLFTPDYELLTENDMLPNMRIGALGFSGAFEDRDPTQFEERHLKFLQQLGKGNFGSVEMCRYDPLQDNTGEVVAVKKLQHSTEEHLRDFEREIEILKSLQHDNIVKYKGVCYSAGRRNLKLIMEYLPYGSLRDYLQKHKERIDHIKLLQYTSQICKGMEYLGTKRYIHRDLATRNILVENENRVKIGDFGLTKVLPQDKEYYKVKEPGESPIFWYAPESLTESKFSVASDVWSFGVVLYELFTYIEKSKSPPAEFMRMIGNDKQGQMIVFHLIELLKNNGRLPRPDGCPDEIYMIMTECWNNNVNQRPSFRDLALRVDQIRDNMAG
Summary of the method: as §1

| Compound | IC50 [1] [nM] | Ki (JAK1) [nM] | Ki (JAK3) [nM] | Lung Tissue AUC(0-24) ([2]; 0.2 mg/mL, two 25 μL increments, lung tissue) | Lung Tissue:Plasma AUC ratio ([2]; lung AUC to plasma AUC) | AUC(0-t) ([2]; mouse, inhaled or intranasal, 0.01 mg/mouse, 0.2 mg/mL, two 25 μL increments, plasma, read-out: Plasma AUC(0-24)) [ng·h/mL] | Ki (TYK2) [nM] | JAK2 pKi (JAK2) | Ki (JAK2) [nM] | JAK1 pKi (JAK1) | BEAS2B pIC50 [1] |
| --- | --- | --- | --- | --- | --- | --- | --- | --- | --- | --- | --- |
| CCc1cc(O)ccc1-c1ccc2c(-c3nc(C4=CCN(CCCO)CC4)c[nH]3)n[nH]c2c1F [Compound 14, 3-ethyl-4-(7-fluoro-3-(4-(1-(3-hydroxypropyl)-1,2,3,6-tetrahydropyridin-4-yl)-1H-imidazol-2-yl)-1H-indazol-6-yl)phenol] | 10 to 31.6 | 0.1 to 1 | 0.1 to 1 | C (C denotes a value between 9 and 50) | C (C denotes a ratio between 100 and 200) | < 500 | 1 to 10 |  |  |  |  |
| CCc1cc(O)ccc1-c1ccc2c(-c3nc(C4=CCCN(C5CCNC5)C4)c[nH]3)n[nH]c2c1F (stereo not drawn) [Example 214] | 316 to 1000 | 0.1 to 1 | 0.1 to 1 |  |  |  | 10 to 100 | A (A represents a pKi value ≥10 (Ki≤0.1 nM)) |  |  |  |
| CCc1cc(O)ccc1-c1ccc2c(-c3nc(C4=CCCN(C5CCN(C)C5)C4)c[nH]3)n[nH]c2c1F (stereo not drawn) [Example 215] | 31.6 to 100 | 1 to 10 | 0.1 to 1 |  |  |  | 1 to 10 |  | 0.1 to 1 |  |  |
| CCc1cc(O)ccc1-c1ccc2c(-c3nc(C4=CCCN(C5CCCN(C)C5)C4)c[nH]3)n[nH]c2c1F (stereo not drawn) [Example 217] | 31.6 to 100 | 1 to 10 | 0.1 to 1 |  |  |  | 1 to 10 |  | 0.1 to 1 |  |  |
| CCc1cc(O)ccc1-c1ccc2c(-c3nc(C4=CCN(C5CCNC5)C4)c[nH]3)n[nH]c2c1F (stereo not drawn) [Example 218] | 31.6 to 100 |  | 0.1 to 1 |  |  |  | 1 to 10 | A (A represents a pKi value ≥10 (Ki≤0.1 nM)) |  | A (A represents a pKi value ≥10 (Ki≤0.1 nM)) |  |
| CCc1cc(O)ccc1-c1ccc2c(-c3nc(C4=CCN(C5CCN(C)C5)C4)c[nH]3)n[nH]c2c1F (stereo not drawn) [Example 219] | 10 to 31.6 | 0.1 to 1 | 0.1 to 1 |  |  |  | 0.1 to 1 | A (A represents a pKi value ≥10 (Ki≤0.1 nM)) |  |  |  |
| CCc1cc(O)ccc1-c1ccc2c(-c3nc(C4=CCN(CCN(C)C)C4)c[nH]3)n[nH]c2c1F [Example 220] | 10 to 31.6 | 0.1 to 1 | 0.1 to 1 |  |  |  | 1 to 10 | A (A represents a pKi value ≥10 (Ki≤0.1 nM)) |  |  |  |
| CCc1cc(O)ccc1-c1ccc2c(-c3nc(C4=CCN(C5CCCN(C)C5)C4)c[nH]3)n[nH]c2c1F (stereo not drawn) [Example 223] | 10 to 31.6 | 0.1 to 1 | 0.1 to 1 |  |  |  | 1 to 10 | A (A represents a pKi value ≥10 (Ki≤0.1 nM)) |  |  |  |
| CCc1cc(O)ccc1-c1ccc2c(-c3nc(C4=C(C)CNCC4)c[nH]3)n[nH]c2c1 [Example 224] | 3.16 to 10 | 0.1 to 1 | 0.1 to 1 |  |  |  | 1 to 10 |  | 0.1 to 1 |  |  |
| CCc1cc(O)ccc1-c1ccc2c(-c3nc(C4=CC5CCCC(C4)N5)c[nH]3)n[nH]c2c1 (stereo not drawn) [Example 225] | 31.6 to 100 | 0.1 to 1 | 0.1 to 1 |  |  |  | 1 to 10 |  | 0.1 to 1 |  |  |
| CCc1cc(O)ccc1-c1ccc2c(-c3nc(C4=CC[C@H](C)NC4)c[nH]3)n[nH]c2c1 [Example 230] | 3.16 to 10 |  | 0.1 to 1 |  |  |  | 1 to 10 | A (A represents a pKi value ≥10 (Ki≤0.1 nM)) |  | A (A represents a pKi value ≥10 (Ki≤0.1 nM)) |  |
| CCc1cc(O)ccc1-c1ccc2c(-c3nc(C4=CC[C@@H](C)NC4)c[nH]3)n[nH]c2c1 [Example 231] | 3.16 to 10 | 0.1 to 1 | 0.1 to 1 |  |  |  | 1 to 10 | A (A represents a pKi value ≥10 (Ki≤0.1 nM)) |  |  |  |
| CCc1cc(O)ccc1-c1ccc2c(-c3nc(C4=CC(C)NC4)c[nH]3)n[nH]c2c1 (stereo not drawn) [Example 238] | 3.16 to 10 | 0.1 to 1 | 0.1 to 1 |  |  |  | 10 to 100 |  | 0.1 to 1 |  |  |
| CCc1cc(O)ccc1-c1ccc2c(-c3nc(C4=CC(C)NC4)c[nH]3)n[nH]c2c1F (stereo not drawn) [Example 244] | 3.16 to 10 | 0.1 to 1 | 0.1 to 1 |  |  |  | 1 to 10 |  | 0.1 to 1 |  |  |
| CCc1cc(O)ccc1-c1ccc2c(-c3nc(C4=C[C@@H](CO)NC4)c[nH]3)n[nH]c2c1F [Example 245] | 31.6 to 100 | 0.1 to 1 | 0.1 to 1 |  |  |  | 10 to 100 |  | 0.1 to 1 |  |  |
| CCc1cc(O)ccc1-c1ccc2c(-c3nc(C4=C(C)CNC4)c[nH]3)n[nH]c2c1F [Example 293] | 3.16 to 10 | 0.1 to 1 | 0.1 to 1 |  |  |  | 0.1 to 1 |  | 0.1 to 1 |  |  |
| CCc1cc(O)ccc1-c1ccc2c(-c3nc(C4=CCNCC4C)c[nH]3)n[nH]c2c1 (stereo not drawn) [Example 298] | 10 to 31.6 | 0.1 to 1 | 0.1 to 1 |  |  |  | 0.1 to 1 |  | 0.1 to 1 |  |  |
| CCc1cc(O)ccc1-c1ccc2c(-c3nc(C4=C[C@H](C)NCC4)c[nH]3)n[nH]c2c1F [Example 299] | 10 to 31.6 | 0.1 to 1 | 0.1 to 1 |  |  |  | 0.1 to 1 |  | 0.1 to 1 |  |  |
| CCOC(=O)C1CC=C(c2c[nH]c(-c3n[nH]c4c(F)c(-c5ccc(O)cc5CC)ccc34)n2)CN1 (stereo not drawn) [Example 300] | 10 to 31.6 | 0.1 to 1 | 0.1 to 1 |  |  |  | 1 to 10 |  | 0.1 to 1 |  |  |
| CCc1cc(O)ccc1-c1ccc2c(-c3nc(C4=CCN([C@H]5CC[C@@H](O)CC5)C4)c[nH]3)n[nH]c2c1F [Example 305] |  | 0.1 to 1 | 0.1 to 1 |  |  |  | 0.1 to 1 | A (A represents a pKi value ≥10 (Ki≤0.1 nM)) |  |  | B (B represents a pIC50 value between 7.5 (included) and 8) |
| CCOC[C@H]1C=C(c2c[nH]c(-c3n[nH]c4c(F)c(-c5ccc(O)cc5CC)ccc34)n2)CN1 [Example 307] | 10 to 31.6 | 0.1 to 1 | 0.1 to 1 |  |  |  | 1 to 10 |  | 0.1 to 1 |  |  |
| CCc1cc(O)ccc1-c1ccc2c(-c3nc(C4=CC(CC)NC4)c[nH]3)n[nH]c2c1F (stereo not drawn) [Example 321] | 10 to 31.6 | 0.1 to 1 | 0.1 to 1 |  |  |  | 1 to 10 |  | 0.1 to 1 |  |  |
| CCc1cc(O)ccc1-c1ccc2c(-c3nc(C4=CCN(C[C@@H]5CCN5)CC4)c[nH]3)n[nH]c2c1F [Example 390] | 100 to 316 | 0.1 to 1 | 0.1 to 1 |  |  |  | 1 to 10 | A (A represents a pKi value ≥10 (Ki≤0.1 nM)) |  |  |  |
